Assay [1] is described as follows: Binding affinity to rat Dopamine receptor D3 expressed in CHO cells was determined using [125 I] iodosulpride as radioligand.
Assay [2] is described as follows: Compound was evaluated for effective concentration […] for Dopamine receptor D2 mitogenesis. (95% confidence intervals).

SMILES strings stand for the structures.

On to `Nc1cccc(C#CCCN2CC=C(c3ccccc3)CC2)c1` [3-[4-(4-Phenyl-3,6-dihydro-2H-pyridin-1-yl)-but-1-ynyl]-phenylamine], for which the affinity in assay [1] corresponds to a Ki of 360 pM. In addition, a half-maximal response in assay [2] (EC50) required 9800 pM. `Nc1ccc(C#CCCN2CC=C(c3ccccc3)CC2)cc1` [4-[4-(4-Phenyl-3,6-dihydro-2H-pyridin-1-yl)-but-1-ynyl]-phenylamine] registered a half-maximal effective concentration (EC50) in assay [2] of 500 pM.

As usually defined, the Ki is the equilibrium dissociation constant of an inhibitor or competing ligand from its target. For orientation: EC50 means the concentration at which the effect is half-maximal.

The values above are taken from BindingDB's records for doi:10.1021/jm950721m (Warner-Lambert, 1996).
